Data from patent publication US9315545B2, “Hepcidin mimetic peptides and uses thereof” (MERGANSER BIOTECH, INC., priority 2014, dated 2016).
≈ marks a conversion by molar mass, not a printed value. Entries after “also recorded” stand apart in the source; their conditions may differ.

What was measured:
[1] = assay type: physicochemical
Procedure: Compound 5, which has the same disulphide block of the reactive cysteine as Compound 2 was also evaluated in stability studies over a 4 week period in 50 mM Na Acetate pH 5 at different temperatures.

[2] = assay type: physicochemical; details: HCl (0.01%), 40° C.
[3] = In vitro stability of compounds in rat plasma (37° C.); assay type: in vitro ADME
Procedure: The in vitro stability of Compounds 1-4 in rat plasma at 37° C. was examined to give an indication of stability in a whole animal model (Table 6).

[4] = Compound blood levels after subcutaneous administration in the rat (LC/MS); assay type: in vivo; details: in vivo, sc, 7.5 mg/kg
Procedure: (§1) Compounds 1-4 were tested in rats to determine compound pharmacokinetics and hepcidin mimetic activity in vivo as measured by serum iron reduction. The effectiveness of the compounds for serum iron reduction should correlate with the treatment of iron metabolism disorders. Individual compounds, in this example and the following examples were generally formulated in DSPE-PEG(2000) (SUNBRIGHT® DSPE-020CN, NOF America Corporation) (30 mg/mL) and dosed subcutaneously at a compound dose of 7.5 mg/kg.
(§2) The compound was prepared according to the following typical preparation. The dosing solution was prepared (7.5 mg compound/mL in clear solution) by weighing the compound into vial and an aliquot of ethanol is added into the vial and mixture vortexed. DSPE-020CN was added and the solution was vortexed, and, if necessary, the mixture was heated at 37° C. for 10-15 minutes to fully dissolve the DSPE-020CN. The ethanol was evaporated with nitrogen gas stream for 1-3 hours. Sterile water was then added and the mixture was vortexed or, if necessary, sonicated to give a clear solution.
After subcutaneous injection compound quantities in blood were measured over the subsequent 24 hours via LC/MS.

serum iron = experiment: Serum iron reduction after subcutaneous administration in the rat (hepcidin mimetic activity); assay type: in vivo; details: 7.5 mg/kg
Procedure: as §1, §2
Serum iron was measured during the 24 h following subcutaneous administration in a rat of Compounds 1-4 and is summarized in FIG. 1. […] The observed effects on serum iron were unexpectedly similar in Compounds 1-3 despite the differences at Cysteine 7 and the differences in blood levels of the compounds (Table 7).

physchem = assay type: physicochemical
Procedure: Different solvent compositions with different properties that are commonly used as a basis for pharmaceutical compositions were added to known quantities of the indicated compound and mixed. If a clear solution was not obtained, additional solvent was added and the solution mixed. […] For example “50-100” would indicate that the compound was not soluble at 100 mg/mL but upon additional solvent to have a final concentration of 50 mg/mL, the compound was soluble.

[5] = assay type: physicochemical; remark: listed apart in the source
Procedure: An additional critical aspect in drug delivery is retention of solubility with time (physical stability), especially under refrigerated conditions. […] Unexpectedly, clear differences in physical stability were observed between Compound 5 and other compounds with only minor changes in sequence (e.g. Compounds 7 and 8). The combination of unexpected solubility of greater than 100 mg/mL in mildly acidic conditions and lack of significant changes in solution character after refrigeration, are unexpected and advantageous for a pharmaceutical product.

% Purity, Week 0, 2-8° C. ([1]; 50 mM NaAcetate pH 5, week 0, 2-8° C.): 96.9%
% Purity, Week 0, 25° C. ([1]; 50 mM NaAcetate pH 5, week 0, 25° C.): 96.9%
% Purity, Week 1, 2-8° C. ([1]; 50 mM NaAcetate pH 5, week 1, 2-8° C.): 96.8%
% Purity, Week 1, 25° C. ([1]; 50 mM NaAcetate pH 5, week 1, 25° C.): 96.8%
% Purity, Week 2, 2-8° C. ([1]; 50 mM NaAcetate pH 5, week 2, 2-8° C.): 96.8%
% Purity, Week 2, 25° C. ([1]; 50 mM NaAcetate pH 5, week 2, 25° C.): 96.3%
% Purity, Week 4, 2-8° C. ([1]; 50 mM NaAcetate pH 5, week 4, 2-8° C.): 96.7%
% Purity, Week 4, 25° C. ([1]; 50 mM NaAcetate pH 5, week 4, 25° C.): 96.1%
% Purity, Day 0 ([2]; day 0): 97.1%
% Purity, Day 7 ([2]; day 7): 96.8%
in vitro plasma stability, comparison in words [3]: even greater than that for Compound 2
solubility (physchem; Solubility (mg/mL) at Ambient Temperature, 30% PEG 400): 50 to 100 mg/mL (≈ 27.7 to 55.4 mM)
solubility (physchem; Solubility (mg/mL) at Ambient Temperature, 50% EtOH/water): > 100 mg/mL
solubility (physchem; Solubility (mg/mL) at Ambient Temperature, Water): > 100 mg/mL
solubility (physchem; pH 2.3, Solubility (mg/mL) at Ambient Temperature, 10% Tween 80 pH 2.3-2.8): > 200 mg/mL
solubility (physchem; pH 2.7, Solubility (mg/mL) at Ambient Temperature, 50% propylene glycol, pH 2.7): 50 to 100 mg/mL (≈ 27.7 to 55.4 mM)
solubility (physchem; pH 4.5, Solubility (mg/mL) at Ambient Temperature, 10% Tween 80 pH 4.5-5.0): > 100 mg/mL
solubility (physchem; pH 5, Solubility (mg/mL) at Ambient Temperature, 2% Tween 80 pH 5): > 100 mg/mL
solubility (physchem; pH 5.5, Solubility (mg/mL) at Ambient Temperature, 10% Tween 80 pH 5.5-6.0): > 100 mg/mL
solubility (physchem; pH 6.4, Solubility (mg/mL) at Ambient Temperature, 2% Tween pH 6.4): > 44 mg/mL
solubility (physchem; solubility in mildly acidic conditions): > 100 mg/mL
Compound: CCCCCCCCCCCCCCCCNC(=O)CN(CC(N)=O)C(=O)CCCCCNC(=O)C(Cc1c[nH]c2ccccc12)NC(=O)C(CCCNC(=N)N)NC(=O)C(CSSC)NC(=O)C(CCCNC(=N)N)NC(=O)C1CCCN(C(=O)C(NC(=O)C(Cc2c[nH]cn2)NC(=O)C(NC(=O)CNCC(=O)O)C(C)O)C(c2ccccc2)c2ccccc2)C1 (stereo not drawn) [Compound 5]
blood levels of the dosed compound (in words) [4]: surprisingly higher blood levels relative to the other compounds
duration of serum iron reduction compared with Compound 2 (serum iron): longer effect
reduction in serum iron (in words) (serum iron): retained significant hepcidin activity; also recorded: comparable activity
solubility characteristics compared to the other compounds (in words) (physchem): unexpectedly superior solubility characteristics
change of solubility with pH (in words) (physchem; pH 4): no such significant change in solubility with pH
physical stability under refrigerated conditions (in words) [5]: no changes in solution solubility or solution characteristics
